Values quoted from earlier work, collected in US20230046815A1, “Wound honey with a pump dispenser” (priority 2021, published 2023).

Test system: Salmonella sp.
Conditions: single agent

Structure (SMILES): O=C(O)CC(O)(CC(=O)O)C(=O)O [Citric Acid]
- Minimal Bactericidal Concentration: 5%

Structure (SMILES): OO [Hydrogen Peroxide]
- Minimal Bactericidal Concentration: 3.12%
